Where two headings read alike, the source gives them in different places. Where a SMILES comes first, the peptide text is derived from it.
How the values were obtained:
[1] = Plasma levels by LC-MS/MS after subcutaneous administration; type: in vivo, rat
MN9D neuronal cells [2] = assay: Protection of mitochondrial potentials against rotenone, MPP+ and TaClo-induced cytotoxicity; type: cell-based; settings: 100 nM pretreatment, 1, 3, 12, 24 hours
Procedure: (§1) Testing involved permutations of size and diversifying amino acid sequence at each residue position. Sequence design began with Proline-Proline-Glutamate-Alanine-Proline-Alanine-Glutamate-Aspartate-Arginine-Serine-Leucine-NH2. […] These properties were tested using the dopaminergic MN9D neuronal cell line. Each candidate peptide sequence was dissolved in citrate buffer and added to MN9D cells (Choi et al., 1992) that were cultured in Dulbecco's Modified Eagle's Medium [DMEM (containing pyridoxol HCl); Sigma, St. Louis, MO] supplemented with 10% Fetal Bovine serum (HyClone, Logan, UT), 50 U/ml penicillin and streptomycin to a final 100 nM concentration. Using LIVE/DEAD and JC-1 assays in MN9D neuronal cells, individual library sequences were measured for toxicity and loss of mitochondrial potentials at 1 and 3 hours post treatment. […] The remaining sequences were then tested for their ability to provide protection against neurotoxins rotenone, 1-methyl-4-phenylpyridinium (MPP+), and trichloromethyl-1,2,3,4-tetrahydro-β-carboline (TaClo).

MN9D neuronal cells [3] = assay: LIVE/DEAD and JC-1 assays for toxicity and loss of mitochondrial potentials; settings: 100 nM, 1 and 3 hours post treatment
Procedure: as §1

[4] = rat, in vivo, sc, 100 mg/kg
[5] = rat, in vivo, sc
[6] = tested on: substantia nigra levels of DA, DOPAC, HVA, 5-HT, 5-HIAA, and NE; assay: Substantia nigra neurochemistry (RP-HPLC EC) after repeated intranasal administration; type: in vivo, normal Fischer 344 rats; settings: for Turnover ratio 5-HIAA/5-HT / Turnover ratio (HVA + DOPAC)/DA / Turnover ratio DOPAC/DA / Turnover ratio HVA/DA / 5-HIAA / 5-HT / DA / DOPAC / HVA / NE: 5 days a week for 3 weeks, combined left and right substantia nigra, mean; for 5-HIAA / 5-HT / DA / DOPAC / HVA / NE: wet tissue weight
Procedure: (§2) Groups of 12, 3 month old Fischer 344 rats were intranasally dosed 50 microliters (4 single 12.5 microliter administrations, 2 per nare, 5 minutes between each nare administration) of either vehicle, 1.1 mg/mL, or 3.5 mg/mL of AV6403 [Leu-Ala-Pro-Ala-Glu-Asp-NH2] (SEQ ID NO: 1) once a day for 5 days a week, for 3 weeks (5 consecutive days of dosing, 2 off days, repeated total of 3 times). Following day 21, rats were euthanized and brain tissue was recovered and sections removed and weighed for neurochemical analysis by Reverse-Phase High Pressure Liquid Chromatography Electrochemical detection (RP-HPLC EC).
In the SN [TABLE 3], treatment of AV6403 led to about a 13% increase in DOPAC and a 11% reduction of HVA, depending on the dosage, [FIG. 4A-FIG. 4C] resulting in an increase in dopamine turnover (20% [DOPAC/DA] for 3.5 mg/mL dosage; 23% [(HVA+DOPAC)/DA] for 1.1 mg/mL) relative to saline vehicle treated rats [FIG. 5A-FIG. 5B]. Treatment with 1.1 mg/mL AV6403 decreased 5-HT by 10% in the SN, resulting in a 16% increase in serotonin turnover [5-HIAA/5-HT] [TABLE 4]. The higher dosage (3.5 mg/mL AV6403) increased NE levels in the SN by about 23% versus vehicle treated rats, respectively [TABLE 3].
as §2, with “1.2” for “1.1”, “3.6” for “3.5”, “AV7624 [Glu-Ala-Pro-Phe-Glu-Asp-NH2]” for “AV6403 [Leu-Ala-Pro-Ala-Glu-Asp-NH2] (SEQ ID NO: 1)”, “RP-HPLC EC.” for “Reverse-Phase High Pressure Liquid Chromatography Electrochemical detection (RP-HPLC EC).”
In the SN [TABLE 7], treatment with 3.6 mg/mL AV7624 led to about a 23%, 22%, and a 6% decrease in DA, DOPAC, and HVA [FIG. 9A-FIG. 9C], relative to saline vehicle treated rats, with minor effects on dopamine turnover [FIG. 10A-FIG. 10B]. Treatment with 3.6 mg/mL AV7624 decreased 5-HT by 20% and 5-HIAA by about 18% in the SN [TABLE 7], resulting in a minor effect on serotonin turnover [TABLE 8]. NE levels in the SN were decreased (17% and 13%) by both dosages (1.2 mg/mL and 3.6 mg/mL) versus vehicle treated rats, respectively [TABLE 7].

[7] = tested on: striatum levels of DA, DOPAC, HVA, 5-HT, 5-HIAA, and NE; assay: Striatum neurochemistry (RP-HPLC EC) after repeated intranasal administration; type: in vivo, normal Fischer 344 rats; settings: for Turnover ratio 5-H1AA/5-HT / Turnover ratio (HVA + DOPAC)/DA / Turnover ratio DOPAC/DA / Turnover ratio HVA/DA / 5-HIAA / 5-HT / DA / DOPAC / HVA / NE: 5 days a week for 3 weeks, combined left and right striatum, mean; for 5-HIAA / 5-HT / DA / DOPAC / HVA / NE: wet tissue weight
Procedure: as §2
Dopamine [DA], its major metabolites 3,4-Dihydroxy-Phenylacetic Acid (DOPAC) and Homovanillic Acid (HVA), 5-hydroxytryptamine (5-HT, serotonin), its metabolite 5-hydroxyindoleacetic acid (5-HIAA), and norepinephrine (NE) were measured in the striatum and substantia nigra (SN) for each group. In the striatum [TABLE 1], 1.1 mg/mL dosing of AV6403 led to a 20% and 25% reduction of DA and HVA levels [FIG. 1A-FIG. 1C], respectively, resulting in an increase in dopamine turnover (22% [DOPAC/DA] and 16% [[(HVA+DOPAC)/DA]), relative to saline vehicle treated rats [FIG. 2A-FIG. 2B]. […] NE levels were reduced in the striatum with about a 36% reduction for AV6403 1.1 mg/mL dosage versus vehicle [TABLE 1].
as §2, with “1.2” for “1.1”, “3.6” for “3.5”, “AV7624 [Glu-Ala-Pro-Phe-Glu-Asp-NH2]” for “AV6403 [Leu-Ala-Pro-Ala-Glu-Asp-NH2] (SEQ ID NO: 1)”, “RP-HPLC EC.” for “Reverse-Phase High Pressure Liquid Chromatography Electrochemical detection (RP-HPLC EC).”
DA, DOPAC, HVA, 5-HT, 5-HIAA, and NE were measured in the striatum and SN for each group. In the striatum [TABLE 5], 3.6 mg/mL dosing of AV7624 led to an approximate 18%, 39%, and 30% reduction of DA, DOPAC, and HVA levels [FIG. 6A-FIG. 6C], respectively, resulting in an about 18% decrease in dopamine turnover ([DOPAC/DA] and [(HVA+DOPAC)/DA]), relative to saline vehicle treated rats [FIG. 7A-FIG. 7B]. […] NE levels were reduced in the striatum in a dose dependent manner, with about a 32% reduction for the AV7624 3.6 mg/mL dosage versus vehicle [TABLE 5]

[8] = SN, depending on the dosage, relative to saline vehicle treated rats
[9] = 1.1 mg/mL intranasal, striatum, relative to saline vehicle treated rats
[10] = 1.1 mg/mL repeated intranasal, striatum, relative to saline treated rats

## C[C@H](NC(=O)[C@@H]1CCCN1C(=O)[C@H](C)NC(=O)[C@@H](N)CCC(=O)O)C(=O)N[C@@H](CCC(=O)O)C(N)=O [AV2157, Glutamate-Alanine-Proline-Alanine-Glutamate-NH2] (H-EAPAE-NH2; N-terminus assumed)
[1]; 100 mg/kg s.c. in saline
  total lifetime in plasma: ~120 min
[1]; rat, plasma, sc, 100 mg/kg s.c. in saline, read-out: maximum plasma level
  Cmax: 1250 ng/mL
[1]; rat, plasma, sc, 100 mg/kg s.c. in saline, read-out: time of maximum plasma level post administration (converted)
  Tmax: 20 min
MN9D neuronal cells [2]
  protection against neurotoxins (rotenone, MPP+, TaClo): protection against neurotoxin exposure at all time points measured
MN9D neuronal cells [3]
  toxicity: low toxicity
[4]
  half-life: 50 to 60 min
[5]
  improved CNS bioavailability compared to AV6403: over 10 times

## CC(C)C[C@H](N)C(=O)N[C@@H](C)C(=O)N1CCC[C@H]1C(=O)N[C@@H](C)C(=O)N[C@@H](CCC(=O)O)C(=O)N[C@@H](CC(=O)O)C(N)=O [AV6403, Leu-Ala-Pro-Ala-Glu-Asp-NH2] (H-LAPAED-NH2; N-terminus assumed)
[6]; 1.1 mg/mL intranasal, SN
  decrease of 5-HT: 10%
  increase in serotonin turnover [5-HIAA/5-HT]: 16%
[6]; 1.1 mg/mL intranasal, SN, relative to saline vehicle treated rats
  increase in dopamine turnover [(HVA+DOPAC)/DA]: 23%
[6]; 1.1 mg/ml intranasal
  Turnover ratio 5-HIAA/5-HT: 0.58
  Turnover ratio (HVA + DOPAC)/DA: 0.37
  Turnover ratio DOPAC/DA: 0.22
  Turnover ratio HVA/DA: 0.15
  5-HIAA: 552 ng/g
  5-HT: 1014 ng/g
  DA: 1122 ng/g
  DOPAC: 232 ng/g
  HVA: 102 ng/g
  NE: 554 ng/g
[6]; 3.5 mg/mL intranasal, SN, relative to saline vehicle treated rats
  increase in dopamine turnover [DOPAC/DA]: 20%
[6]; 3.5 mg/mL intranasal, SN, versus vehicle treated rats
  increase of NE levels: about 23%
[6]; 3.5 mg/ml intranasal
  Turnover ratio 5-HIAA/5-HT: 0.54
  Turnover ratio (HVA + DOPAC)/DA: 0.34
  Turnover ratio DOPAC/DA: 0.24
  Turnover ratio HVA/DA: 0.11
  5-HIAA: 546 ng/g
  5-HT: 1050 ng/g
  DA: 1096 ng/g
  DOPAC: 253 ng/g
  HVA: 113 ng/g
  NE: 644 ng/g
[6]; [8]
  increase in DOPAC: ~13%
  reduction of HVA: 11%
[1]; 30 and 100 mg/kg s.c.
  plasma lifetime as compared to the extracellular brain levels: longer lifetime
  time of maximum plasma levels post administration: 20 to 40 min
[1]; rat, plasma, sc, 30 mg/kg s.c., read-out: maximum plasma levels
  Cmax: 3500 ng/mL
[1]; rat, plasma, sc, 100 mg/kg s.c., read-out: maximum plasma levels
  Cmax: 6000 ng/mL
[4]
  half-life: 50 to 60 min
[7]; [9]
  increase in dopamine turnover [(HVA+DOPAC)/DA]: 16%
  increase in dopamine turnover [DOPAC/DA]: 22%
  reduction of DA levels: 20%
  reduction of HVA levels: 25%
[7]; 1.1 mg/mL intranasal, striatum, versus vehicle
  reduction of NE levels: ~36%
[7]; [10]
  increase in turnover [5-HIAA/5-HT]: 19%
  reduction of 5-HIAA: ~19%
  reduction of 5-HT: ~32%
[7]; 1.1 mg/ml intranasal
  Turnover ratio 5-H1AA/5-HT: 1.28
  Turnover ratio (HVA + DOPAC)/DA: 0.36
  Turnover ratio DOPAC/DA: 0.28
  Turnover ratio HVA/DA: 0.08
  5-HIAA: 326 ng/g
  5-HT: 257 ng/g
  DA: 9425 ng/g
  DOPAC: 2618 ng/g
  HVA: 699 ng/g
  NE: 45 ng/g
[7]; 3.5 mg/mL intranasal, striatum
  changes in DA turnover: minor changes
  increase of striatal DA levels: 8%
  increase of striatal DOPAC levels: 11%
[7]; 3.5 mg/ml intranasal
  Turnover ratio 5-H1AA/5-HT: 1.11
  Turnover ratio (HVA + DOPAC)/DA: 0.31
  Turnover ratio DOPAC/DA: 0.23
  Turnover ratio HVA/DA: 0.08
  5-HIAA: 437 ng/g
  5-HT: 393 ng/g
  DA: 12475 ng/g
  DOPAC: 2922 ng/g
  HVA: 935 ng/g
  NE: 66 ng/g
[7]; higher dosage (3.5 mg/mL) intranasal, striatum, relative to saline treated rats
  change of 5-HT, 5-HIAA and turnover: small increases

— patent US11833185B2, “Anti-neurodegenerative therapeutic, method of manufacture, and use” (UNIVERSITY OF KENTUCKY RESEARCH FOUNDATION, priority 2017, dated 2023)
